Data from ChEMBL document CHEMBL2440076, “New triarylpyrazoles as broad-spectrum anticancer agents: design, synthesis, and biological evaluation” (Eur J Med Chem, 2013).

Legend:
LOX IMVI = experiment: Growth inhibition of human LOXIMVI cells after 48 hrs by sulforhodamine B assay; assay type: functional
DU-145 = experiment: Growth inhibition of human DU145 cells after 48 hrs by sulforhodamine B assay; assay type: functional; conditions: DU-145, 48 h
NCI-H460 = experiment: Growth inhibition of human NCI-H460 cells after 48 hrs by sulforhodamine B assay; assay type: functional; conditions: NCI-H460, 48 h
M14 = experiment: Growth inhibition of human M14 cells assessed as cell growth at 10 uM after 48 hrs by sulforhodamine B assay; assay type: functional; conditions: M14, 48 h, read-out: Activity
SK-MEL-28 = experiment: Growth inhibition of human SK-MEL-28 cells after 48 hrs by sulforhodamine B assay; assay type: functional; conditions: SK-MEL-28, 48 h
SK-MEL-2 = experiment: Growth inhibition of human SK-MEL-2 cells assessed as cell growth at 10 uM after 48 hrs by sulforhodamine B assay; assay type: functional; conditions: SK-MEL-2, 48 h, read-out: Activity
MOLT-4 = experiment: Growth inhibition of human MOLT4 cells assessed as cell growth at 10 uM after 48 hrs by sulforhodamine B assay; assay type: functional; conditions: MOLT-4, 48 h, read-out: Activity
PC-3 = experiment: Growth inhibition of human PC3 cells assessed as cell growth at 10 uM after 48 hrs by sulforhodamine B assay; assay type: functional; conditions: PC-3, 48 h, read-out: Activity
UO-31 = experiment: Growth inhibition of human UO31 cells assessed as cell growth at 10 uM after 48 hrs by sulforhodamine B assay; assay type: functional; conditions: UO-31, 48 h, read-out: Activity
NCI-H23 = experiment: Growth inhibition of human NCI-H23 cells assessed as cell growth at 10 uM after 48 hrs by sulforhodamine B assay; assay type: functional; conditions: NCI-H23, 48 h, read-out: Activity
OVCAR-5 = experiment: Growth inhibition of human OVCAR5 cells assessed as cell growth at 10 uM after 48 hrs by sulforhodamine B assay; assay type: functional; conditions: OVCAR-5, 48 h, read-out: Activity
SK-OV-3 = experiment: Growth inhibition of human SKOV3 cells after 48 hrs by sulforhodamine B assay; assay type: functional; conditions: SK-OV-3, 48 h
CAKI-1 = experiment: Growth inhibition of human CAKI-1 cells after 48 hrs by sulforhodamine B assay; assay type: functional; conditions: CAKI-1, 48 h
SW-620 = experiment: Growth inhibition of human SW620 cells assessed as cell growth at 10 uM after 48 hrs by sulforhodamine B assay; assay type: functional; conditions: SW-620, 48 h, read-out: Activity
HT-29 = experiment: Growth inhibition of human HT-29 cells assessed as cell growth at 10 uM after 48 hrs by sulforhodamine B assay; assay type: functional; conditions: HT-29, 48 h, read-out: Activity
HOP-92 = experiment: Growth inhibition of human HOP92 cells after 48 hrs by sulforhodamine B assay; assay type: functional, cell-based; conditions: HOP-92, 48 h
BT-549 = experiment: Growth inhibition of human BT549 cells after 48 hrs by sulforhodamine B assay; assay type: functional; conditions: BT-549, 48 h
HOP-62 = experiment: Growth inhibition of human HOP62 cells after 48 hrs by sulforhodamine B assay; assay type: functional; conditions: HOP-62, 48 h
K562 = experiment: Growth inhibition of human K562 cells after 48 hrs by sulforhodamine B assay; assay type: functional; conditions: K562, 48 h
T47D = experiment: Growth inhibition of human T47D cells after 48 hrs by sulforhodamine B assay; assay type: functional
COLO 205 = experiment: Growth inhibition of human COLO205 cells after 48 hrs by sulforhodamine B assay; assay type: functional; conditions: COLO 205, 48 h
RPMI-8226 = experiment: Growth inhibition of human RPMI8226 cells assessed as cell growth at 10 uM after 48 hrs by sulforhodamine B assay; assay type: functional; conditions: RPMI-8226, 48 h, read-out: Activity
MDA-MB-468 = experiment: Growth inhibition of human MDA-MB-468 cells assessed as cell growth at 10 uM after 48 hrs by sulforhodamine B assay; assay type: functional; conditions: MDA-MB-468, 48 h, read-out: Activity
NCI-H522 [1] = experiment: Growth inhibition of human NCI-H522 cells assessed as cell growth at 10 uM after 48 hrs by sulforhodamine B assay; assay type: functional; conditions: NCI-H522, 48 h, read-out: Activity
HCT-15 [2] = experiment: Growth inhibition of human HCT15 cells after 48 hrs by sulforhodamine B assay; assay type: functional; conditions: HCT-15, 48 h
KM12 = experiment: Growth inhibition of human KM12 cells assessed as cell growth at 10 uM after 48 hrs by sulforhodamine B assay; assay type: functional; conditions: KM12, 48 h, read-out: Activity
NCI-H522 [3] = experiment: Growth inhibition of human NCI-H522 cells after 48 hrs by sulforhodamine B assay; assay type: functional; conditions: NCI-H522, 48 h
HL-60(TB) = experiment: Growth inhibition of human HL-60(TB) cells after 48 hrs by sulforhodamine B assay; assay type: functional; conditions: HL-60, 48 h
OVCAR-3 = experiment: Growth inhibition of human OVCAR3 cells assessed as cell growth at 10 uM after 48 hrs by sulforhodamine B assay; assay type: functional; conditions: OVCAR-3, 48 h, read-out: Activity
HCT-15 [4] = experiment: Growth inhibition of human HCT15 cells assessed as cell growth at 10 uM after 48 hrs by sulforhodamine B assay; assay type: functional; conditions: HCT-15, 48 h, read-out: Activity
SF-539 = experiment: Growth inhibition of human SF539 cells after 48 hrs by sulforhodamine B assay; assay type: functional; conditions: SF-539, 48 h
OVCAR-8 [5] = experiment: Growth inhibition of human OVCAR8 cells assessed as cell growth at 10 uM after 48 hrs by sulforhodamine B assay; assay type: functional; conditions: OVCAR-8, 48 h, read-out: Activity
786-0 = experiment: Growth inhibition of human 786-0 cells after 48 hrs by sulforhodamine B assay; assay type: functional; conditions: 786-0, 48 h
OVCAR-8 [6] = experiment: Growth inhibition of human OVCAR8 cells after 48 hrs by sulforhodamine B assay; assay type: functional; conditions: OVCAR-8, 48 h
[7] = read-out: LC50 (the source's name)

Compound: COc1cc(-c2nn(-c3cccc(NC(=O)c4ccc(N5CCOCC5)c(C(F)(F)F)c4)c3)cc2-c2ccncc2)ccc1Cl
- GI50 (LOX IMVI): 371 nM
- LC50 (LOX IMVI): > 100000 nM
- TGI (LOX IMVI): 6200 nM
- GI50 (DU-145): 388 nM
- LC50 (DU-145): > 100000 nM
- TGI (DU-145): > 100000 nM
- GI50 (NCI-H460): 336 nM
- LC50 (NCI-H460): > 100000 nM
- TGI (NCI-H460): > 100000 nM
- growth at 10 µM (M14): 1.42%
- GI50 (SK-MEL-28): 1390 nM
- LC50 (SK-MEL-28): > 100000 nM
- TGI (SK-MEL-28): > 100000 nM
- growth at 10 µM (SK-MEL-2): -8.84%
- growth at 10 µM (MOLT-4): 4.07%
- growth at 10 µM (PC-3): 8.17%
- growth at 10 µM (UO-31): 24.6%
- growth at 10 µM (NCI-H23): 15.6%
- growth at 10 µM (OVCAR-5): 34.7%
- GI50 (SK-OV-3): 340 nM
- TGI (SK-OV-3): 4730 nM
- CC50 (SK-OV-3; [7]): > 100000 nM
- GI50 (CAKI-1): 360 nM
- TGI (CAKI-1): 8120 nM
- CC50 (CAKI-1; [7]): > 100000 nM
- growth at 10 µM (SW-620): 25.2%
- growth at 10 µM (HT-29): -13.3%
- GI50 (HOP-92): 124 nM
- IC50 (HOP-92): 120 nM
- LC50 (HOP-92): > 100000 nM
- TGI (HOP-92): 813 nM
- GI50 (BT-549): 1410 nM
- LC50 (50% lethal concentration) (BT-549): > 100000 nM
- TGI (BT-549): > 100000 nM
- GI50 (HOP-62): 583 nM
- TGI (HOP-62): > 100000 nM
- CC50 (HOP-62; [7]): > 100000 nM
- GI50 (K562): 49.9 nM
- TGI (K562): > 100000 nM
- CC50 (K562; [7]): > 100000 nM
- GI50 (T47D): 686 nM
- TGI (T47D): > 100000 nM
- CC50 (T47D; [7]): > 100000 nM
- GI50 (COLO 205): 342 nM
- LC50 (concentration killing 50% of cells) (COLO 205): 4150 nM
- TGI (COLO 205): 1150 nM
- growth at 10 µM (RPMI-8226): 8.3%
- growth at 10 µM (MDA-MB-468): -37.8%
- growth at 10 µM (NCI-H522 [1]): 0.2%
- GI50 (HCT-15 [2]): 247 nM
- LC50 (HCT-15 [2]): > 100000 nM
- TGI (HCT-15 [2]): > 100000 nM
- growth at 10 µM (KM12): 5.64%
- GI50 (NCI-H522 [3]): 107 nM
- LC50 (concentration killing 50% of cells) (NCI-H522 [3]): > 100000 nM
- TGI (NCI-H522 [3]): 3530 nM
- GI50 (HL-60(TB)): 298 nM
- TGI (HL-60(TB)): > 100000 nM
- CC50 (HL-60(TB); [7]): > 100000 nM
- growth at 10 µM (OVCAR-3): -29.9%
- growth at 10 µM (HCT-15 [4]): 16.7%
- GI50 (SF-539): 153 nM
- TGI (SF-539): 497 nM
- growth at 10 µM (OVCAR-8 [5]): 5.23%
- GI50 (786-0): 819 nM
- CC50 (786-0; [7]): > 100000 nM
- GI50 (OVCAR-8 [6]): 468 nM
- TGI (OVCAR-8 [6]): > 100000 nM
- CC50 (OVCAR-8 [6]; [7]): > 100000 nM
